From ChEMBL document CHEMBL4613324, “Design, Synthesis, and Evaluation of a Series of Novel Super Long-Acting DPP-4 Inhibitors for the Treatment of Type 2 Diabetes” (J Med Chem, 2020)
The source made the active and inactive calls. The rule behind the calls is not given here.

What was measured:
Cytochrome P450 3A4 [1] = biological target: T1, Cytochrome P450 3A4 (Homo sapiens, UniProt P08684); assay: (§1) Inhibition of recombinant human CYP3A4 using midazolam as substrate; type: ADME
Cytochrome P450 2B6 = biological target: T2, Cytochrome P450 2B6 (Homo sapiens, UniProt P20813); assay: Inhibition of recombinant human CYP2B6; type: ADME
T2 sequence (P20813 whole entry): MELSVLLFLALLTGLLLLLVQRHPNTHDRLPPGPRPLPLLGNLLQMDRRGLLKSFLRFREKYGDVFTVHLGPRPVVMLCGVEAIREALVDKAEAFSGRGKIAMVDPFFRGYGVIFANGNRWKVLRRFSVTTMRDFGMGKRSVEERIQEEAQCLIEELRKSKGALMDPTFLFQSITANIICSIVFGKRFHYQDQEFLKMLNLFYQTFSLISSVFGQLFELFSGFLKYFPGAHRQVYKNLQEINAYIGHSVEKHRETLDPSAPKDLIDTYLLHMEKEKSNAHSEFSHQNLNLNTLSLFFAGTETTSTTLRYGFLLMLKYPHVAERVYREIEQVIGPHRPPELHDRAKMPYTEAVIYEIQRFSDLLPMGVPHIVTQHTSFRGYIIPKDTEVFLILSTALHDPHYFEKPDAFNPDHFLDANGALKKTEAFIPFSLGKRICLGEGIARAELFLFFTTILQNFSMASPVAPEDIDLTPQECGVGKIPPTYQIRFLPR

CYP1A2 = CYP1A2 (Homo sapiens, UniProt P05177); assay: Stability assessed as recombinant human CYP1A2 mediated compound metabolism by measuring parent compound remaining after 30 mins relative to control; type: ADME; conditions: read-out: Stability
CYP3A5 = CYP3A5 (Homo sapiens, UniProt P20815); assay: Stability assessed as recombinant human CYP3A5 mediated compound metabolism by measuring parent compound remaining after 30 mins relative to control; type: ADME; conditions: read-out: Stability
Cytochrome P450 2E1 [2] = biological target: T3, Cytochrome P450 2E1 (Homo sapiens, UniProt P05181); assay: (§2) Inhibition of recombinant human CYP2E1; type: ADME
Cytochrome P450 3A4 [3] = biological target: T1, Cytochrome P450 3A4; assay: as §1; type: ADME; remark: listed apart in the source
Cytochrome P450 2C8 [4] = biological target: T4, Cytochrome P450 2C8 (Homo sapiens, UniProt P10632); assay: (§3) Inhibition of recombinant human CYP2C8; type: ADME
T4 sequence (P10632 whole entry): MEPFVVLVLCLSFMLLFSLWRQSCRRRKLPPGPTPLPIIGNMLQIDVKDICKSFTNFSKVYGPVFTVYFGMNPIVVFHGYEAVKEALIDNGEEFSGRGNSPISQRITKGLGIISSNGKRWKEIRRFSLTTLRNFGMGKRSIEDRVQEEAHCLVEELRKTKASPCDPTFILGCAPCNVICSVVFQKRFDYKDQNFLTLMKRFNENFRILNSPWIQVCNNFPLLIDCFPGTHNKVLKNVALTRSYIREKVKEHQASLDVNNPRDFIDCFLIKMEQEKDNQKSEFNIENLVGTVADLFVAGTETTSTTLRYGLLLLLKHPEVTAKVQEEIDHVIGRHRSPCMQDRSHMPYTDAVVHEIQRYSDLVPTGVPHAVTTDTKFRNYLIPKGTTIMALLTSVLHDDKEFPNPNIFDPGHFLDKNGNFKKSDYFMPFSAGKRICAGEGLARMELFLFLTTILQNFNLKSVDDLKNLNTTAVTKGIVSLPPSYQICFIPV

Mus musculus [5] = assay: Antidiabetic activity in ob/ob mouse assessed as reduction in decrease in HbA1c level at 1 mg/kg, po dosed once every three days for 31 day relative to control; type: functional; parameters: scale not given: the % may be the effect or the level left
Cytochrome P450 3A4 [6] = biological target: T1, Cytochrome P450 3A4; assay: (§4) Inhibition of recombinant human CYP3A4 using testosterone as substrate; type: ADME
CYP2C19 = CYP2C19 (Homo sapiens, UniProt P33261); assay: Stability assessed as recombinant human CYP2C19 mediated compound metabolism by measuring parent compound remaining after 30 mins relative to control; type: ADME; conditions: read-out: Stability
Cytochrome P450 2C8 [7] = biological target: T4, Cytochrome P450 2C8; assay: as §3; type: ADME; remark: listed apart in the source
Dipeptidyl peptidase 8 = Dipeptidyl peptidase 8 (Homo sapiens, UniProt Q6V1X1); assay: Inhibition of human recombinant DPP8 incubated for 15 mins using Gly-Pro-7-AMC substrate
Cytochrome P450 3A4 [8] = biological target: T1, Cytochrome P450 3A4; assay: as §4; type: ADME; remark: listed apart in the source
Cytochrome P450 2C19 [9] = biological target: T5, Cytochrome P450 2C19 (Homo sapiens, UniProt P33261); assay: (§5) Inhibition of recombinant human CYP2C19; type: ADME
[10] = AUC in female Sprague-Dawley rat during 3-month repeated dose toxicology study; type: ADME; conditions: in vivo
CYP2D6 = CYP2D6 (Homo sapiens, UniProt P10635); assay: Stability assessed as recombinant human CYP2D6 mediated compound metabolism by measuring parent compound remaining after 30 mins relative to control; type: ADME; conditions: read-out: Stability
Rhesus monkey [11] = assay: Ex-vivo inhibition of DPP4 in plasma isolated from rhesus monkey treated at 10 mg/kg, ig after 2 weeks by fluorescence based assay relative to control; type: functional; conditions: Macaca mulatta, po, 336 h
Rhesus monkey [12] = assay: Ex-vivo inhibition of DPP4 in plasma isolated from rhesus monkey treated at 10 mg/kg, ig after 3 weeks by fluorescence based assay relative to control; type: functional; conditions: Macaca mulatta, po, 504 h
Cytochrome P450 2D6 [13] = biological target: T6, Cytochrome P450 2D6 (Homo sapiens, UniProt P10635); assay: (§6) Inhibition of recombinant human CYP2D6; type: ADME
Cytochrome P450 2C19 [14] = biological target: T5, Cytochrome P450 2C19; assay: as §5; type: ADME; remark: listed apart in the source
Mus musculus [15] = assay: Antidiabetic activity in ob/ob mouse assessed as reduction in random blood glucose levels at 1 to 10 mg/kg, po dosed once every three days for 31 days; type: functional, organism-based
Cytochrome P450 2C9 [16] = biological target: T7, Cytochrome P450 2C9 (Homo sapiens, UniProt P11712); assay: (§7) Inhibition of recombinant human CYP2C9; type: ADME
Cytochrome P450 3A5 [17] = biological target: T8, Cytochrome P450 3A5 (Homo sapiens, UniProt P20815); assay: (§8) Inhibition of recombinant human CYP3A5 using midazolam as substrate; type: ADME
[18] = Intrinsic clearance in mouse liver microsomes at 0.5 uM incubated for 0.5 to 60 mins by LC-MS/MS analysis; type: ADME, Microsome; conditions: read-out: CLH
Mus musculus [19] = assay: Antidiabetic activity in ob/ob mouse assessed as reduction in decrease in HbA1c level at 3 to 10 mg/kg, po dosed once every three days for 31 day; type: functional, organism-based
Cytochrome P450 2E1 [20] = biological target: T3, Cytochrome P450 2E1; assay: as §2; type: ADME; remark: listed apart in the source
Cytochrome P450 3A5 [21] = biological target: T8, Cytochrome P450 3A5; assay: Inhibition of recombinant human CYP3A5 using testosterone as substrate; type: ADME
Cytochrome P450 2C8 [22] = biological target: T4, Cytochrome P450 2C8; assay: as §3; type: ADME; remark: listed apart in the source
Dipeptidyl peptidase 9 = Dipeptidyl peptidase 9 (Homo sapiens, UniProt Q86TI2); assay: Inhibition of human recombinant DPP9 incubated for 15 mins using Gly-Pro-7-AMC substrate
[23] = Toxicity in Sprague-Dawley rat during single oral dose toxicology study; conditions: in vivo
[24] = Volume of distribution at steady state in ICR mouse at 0.5 mg/kg, iv measured after 0.0833 to 120 hrs by LC-MS-MS analysis; type: ADME, organism-based; conditions: in vivo, read-out: Vdss
CYP2B6 = CYP2B6 (Homo sapiens, UniProt P20813); assay: Stability assessed as recombinant human CYP2B6 mediated compound metabolism by measuring parent compound remaining after 30 mins relative to control; type: ADME; conditions: read-out: Stability
Cytochrome P450 2C9 [25] = biological target: T7, Cytochrome P450 2C9; assay: as §7; type: ADME; remark: listed apart in the source
Cytochrome P450 3A5 [26] = biological target: T8, Cytochrome P450 3A5; assay: as §8; type: ADME; remark: listed apart in the source
[27] = Cmax in ICR mouse at 2 mg/kg, po measured after 0.0833 to 120 hrs by LC-MS-MS analysis; type: ADME, organism-based; parameters: dose 2 mg/kg, route oral; conditions: in vivo
Cytochrome P450 2D6 [28] = biological target: T6, Cytochrome P450 2D6; assay: as §6; type: ADME; remark: listed apart in the source
[29] = Half life in ICR mouse at 2 mg/kg, po measured after 0.0833 to 120 hrs by LC-MS-MS analysis; type: ADME, organism-based; conditions: in vivo
Cytochrome P450 3A5 [30] = biological target: T8, Cytochrome P450 3A5; assay: as §8; type: ADME; remark: listed apart in the source

T1 sequence (P08684 whole entry): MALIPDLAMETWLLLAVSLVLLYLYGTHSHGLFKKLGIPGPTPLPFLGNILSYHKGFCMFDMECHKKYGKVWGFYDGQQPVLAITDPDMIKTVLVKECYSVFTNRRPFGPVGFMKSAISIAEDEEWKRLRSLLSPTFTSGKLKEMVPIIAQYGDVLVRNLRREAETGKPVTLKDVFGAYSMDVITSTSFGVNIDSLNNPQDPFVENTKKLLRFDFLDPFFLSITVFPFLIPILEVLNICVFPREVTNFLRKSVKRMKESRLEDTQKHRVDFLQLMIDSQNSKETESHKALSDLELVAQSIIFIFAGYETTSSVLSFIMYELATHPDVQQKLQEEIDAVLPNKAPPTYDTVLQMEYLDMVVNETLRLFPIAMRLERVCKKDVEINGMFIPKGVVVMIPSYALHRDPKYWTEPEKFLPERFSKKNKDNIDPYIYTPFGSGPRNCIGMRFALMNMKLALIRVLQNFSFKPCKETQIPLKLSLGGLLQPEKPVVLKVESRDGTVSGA
T8 sequence (P20815 whole entry): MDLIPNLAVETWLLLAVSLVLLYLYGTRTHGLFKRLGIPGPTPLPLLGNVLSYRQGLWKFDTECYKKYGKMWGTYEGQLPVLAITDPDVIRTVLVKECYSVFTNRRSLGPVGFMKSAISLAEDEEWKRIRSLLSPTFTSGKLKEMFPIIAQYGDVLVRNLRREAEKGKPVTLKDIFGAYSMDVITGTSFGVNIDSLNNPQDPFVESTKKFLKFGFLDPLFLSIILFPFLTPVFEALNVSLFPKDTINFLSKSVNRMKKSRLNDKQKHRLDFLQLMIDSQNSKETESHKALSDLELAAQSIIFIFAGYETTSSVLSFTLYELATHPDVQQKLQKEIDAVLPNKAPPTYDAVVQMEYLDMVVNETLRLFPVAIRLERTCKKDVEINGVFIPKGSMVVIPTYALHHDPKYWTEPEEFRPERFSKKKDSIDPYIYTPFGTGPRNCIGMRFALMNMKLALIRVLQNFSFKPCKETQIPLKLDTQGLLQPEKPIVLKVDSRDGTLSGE
T6 sequence (P10635 whole entry): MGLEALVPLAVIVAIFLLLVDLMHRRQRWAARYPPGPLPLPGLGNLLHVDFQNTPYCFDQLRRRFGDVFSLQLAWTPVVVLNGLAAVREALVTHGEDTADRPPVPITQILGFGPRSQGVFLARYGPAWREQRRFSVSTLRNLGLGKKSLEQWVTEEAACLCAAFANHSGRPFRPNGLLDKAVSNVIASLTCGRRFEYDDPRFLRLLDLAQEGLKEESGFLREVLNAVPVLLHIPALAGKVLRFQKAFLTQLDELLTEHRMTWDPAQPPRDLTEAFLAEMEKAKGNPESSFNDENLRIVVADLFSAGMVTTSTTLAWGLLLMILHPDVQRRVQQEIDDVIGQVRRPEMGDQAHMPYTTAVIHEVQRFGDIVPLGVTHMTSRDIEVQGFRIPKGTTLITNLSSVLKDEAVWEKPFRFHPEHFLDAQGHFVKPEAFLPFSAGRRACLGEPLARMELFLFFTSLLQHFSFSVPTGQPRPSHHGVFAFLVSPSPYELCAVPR
T5 sequence (P33261 whole entry): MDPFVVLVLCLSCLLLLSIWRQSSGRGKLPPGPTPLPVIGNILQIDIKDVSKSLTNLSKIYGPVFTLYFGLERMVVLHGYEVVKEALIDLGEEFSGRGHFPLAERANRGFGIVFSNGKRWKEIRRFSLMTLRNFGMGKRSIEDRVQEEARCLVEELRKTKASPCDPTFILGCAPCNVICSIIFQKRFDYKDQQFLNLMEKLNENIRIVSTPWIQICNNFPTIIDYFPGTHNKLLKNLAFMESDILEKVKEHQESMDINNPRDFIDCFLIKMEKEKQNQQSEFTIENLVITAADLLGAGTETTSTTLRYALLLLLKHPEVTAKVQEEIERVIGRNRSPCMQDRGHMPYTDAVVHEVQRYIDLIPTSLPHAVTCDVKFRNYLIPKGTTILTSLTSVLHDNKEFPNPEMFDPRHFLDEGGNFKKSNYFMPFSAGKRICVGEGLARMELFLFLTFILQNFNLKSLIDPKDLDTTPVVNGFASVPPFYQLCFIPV
T3 sequence (P05181 whole entry): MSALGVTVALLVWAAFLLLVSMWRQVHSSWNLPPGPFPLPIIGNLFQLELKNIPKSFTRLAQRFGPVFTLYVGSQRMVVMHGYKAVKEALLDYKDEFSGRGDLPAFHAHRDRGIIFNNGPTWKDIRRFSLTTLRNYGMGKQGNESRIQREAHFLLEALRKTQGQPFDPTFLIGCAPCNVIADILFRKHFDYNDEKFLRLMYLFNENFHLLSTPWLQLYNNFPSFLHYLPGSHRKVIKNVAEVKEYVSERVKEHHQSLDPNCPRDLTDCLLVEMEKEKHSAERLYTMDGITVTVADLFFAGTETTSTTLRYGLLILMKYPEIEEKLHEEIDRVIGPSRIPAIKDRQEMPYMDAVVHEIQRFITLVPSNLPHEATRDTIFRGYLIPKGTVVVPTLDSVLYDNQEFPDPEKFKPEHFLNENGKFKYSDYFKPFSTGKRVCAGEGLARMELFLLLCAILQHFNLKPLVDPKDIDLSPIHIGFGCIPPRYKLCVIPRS
T7 sequence (P11712 whole entry): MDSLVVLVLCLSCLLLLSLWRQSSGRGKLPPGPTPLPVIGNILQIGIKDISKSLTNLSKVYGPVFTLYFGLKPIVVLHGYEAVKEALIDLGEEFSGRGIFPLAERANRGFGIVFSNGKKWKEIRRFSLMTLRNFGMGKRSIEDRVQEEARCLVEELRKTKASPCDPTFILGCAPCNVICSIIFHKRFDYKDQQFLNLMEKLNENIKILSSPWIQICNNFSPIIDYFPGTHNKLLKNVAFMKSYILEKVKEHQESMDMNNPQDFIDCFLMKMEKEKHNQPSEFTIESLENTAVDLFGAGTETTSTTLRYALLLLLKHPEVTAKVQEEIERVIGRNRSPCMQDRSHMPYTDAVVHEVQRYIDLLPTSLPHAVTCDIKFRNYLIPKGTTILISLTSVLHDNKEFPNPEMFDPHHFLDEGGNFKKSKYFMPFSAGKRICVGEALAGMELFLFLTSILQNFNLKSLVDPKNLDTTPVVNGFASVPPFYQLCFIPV
Sequence of Dipeptidyl peptidase 8 (Q6V1X1 whole entry): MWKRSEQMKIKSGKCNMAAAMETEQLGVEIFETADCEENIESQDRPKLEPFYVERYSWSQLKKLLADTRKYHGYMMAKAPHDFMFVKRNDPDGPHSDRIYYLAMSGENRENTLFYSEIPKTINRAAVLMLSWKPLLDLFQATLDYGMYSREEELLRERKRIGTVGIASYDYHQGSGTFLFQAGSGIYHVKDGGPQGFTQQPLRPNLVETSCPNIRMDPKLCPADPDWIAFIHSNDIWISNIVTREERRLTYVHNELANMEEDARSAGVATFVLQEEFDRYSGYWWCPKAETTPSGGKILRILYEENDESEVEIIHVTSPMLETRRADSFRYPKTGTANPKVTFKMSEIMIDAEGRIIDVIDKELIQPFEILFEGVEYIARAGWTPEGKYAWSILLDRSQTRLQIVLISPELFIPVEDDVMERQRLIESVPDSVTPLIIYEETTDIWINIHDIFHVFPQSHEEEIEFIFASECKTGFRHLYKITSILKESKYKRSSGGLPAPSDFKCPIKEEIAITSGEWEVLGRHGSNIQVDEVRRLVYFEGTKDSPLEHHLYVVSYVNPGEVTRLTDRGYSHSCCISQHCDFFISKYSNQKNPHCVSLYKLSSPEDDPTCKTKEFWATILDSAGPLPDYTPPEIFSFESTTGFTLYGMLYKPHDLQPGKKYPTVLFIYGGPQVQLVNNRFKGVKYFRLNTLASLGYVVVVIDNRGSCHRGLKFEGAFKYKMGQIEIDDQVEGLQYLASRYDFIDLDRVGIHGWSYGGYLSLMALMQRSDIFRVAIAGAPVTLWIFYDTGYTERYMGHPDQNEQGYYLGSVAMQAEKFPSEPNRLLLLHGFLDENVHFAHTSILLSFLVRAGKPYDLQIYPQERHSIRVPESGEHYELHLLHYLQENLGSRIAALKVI
Sequence of CYP2D6 (P10635 whole entry): as the sequence (P10635 whole entry) above
Sequence of CYP2C19 (P33261 whole entry): as the sequence (P33261 whole entry) above
Sequence of CYP1A2 (P05177 whole entry): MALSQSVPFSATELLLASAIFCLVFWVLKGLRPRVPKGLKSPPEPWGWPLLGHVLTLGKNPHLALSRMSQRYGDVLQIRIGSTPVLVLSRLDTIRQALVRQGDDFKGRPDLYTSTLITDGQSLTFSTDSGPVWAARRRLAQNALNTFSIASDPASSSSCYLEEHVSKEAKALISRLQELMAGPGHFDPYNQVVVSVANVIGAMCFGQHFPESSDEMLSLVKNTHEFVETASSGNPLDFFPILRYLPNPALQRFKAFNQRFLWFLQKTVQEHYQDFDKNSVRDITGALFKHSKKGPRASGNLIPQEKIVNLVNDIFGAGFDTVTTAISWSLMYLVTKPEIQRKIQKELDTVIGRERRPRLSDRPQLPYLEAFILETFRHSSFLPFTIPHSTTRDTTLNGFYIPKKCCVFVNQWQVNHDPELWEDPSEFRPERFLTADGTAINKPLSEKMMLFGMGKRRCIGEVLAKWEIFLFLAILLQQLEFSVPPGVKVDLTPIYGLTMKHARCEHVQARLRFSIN
Sequence of CYP3A5 (P20815 whole entry): as the sequence (P20815 whole entry) above

CS(=O)(=O)n1cc2c(n1)CN([C@@H]1C[C@H](N)[C@@H](c3cc(F)ccc3F)O[C@@H]1C(F)(F)F)C2 [COFROGLIPTIN]
IC50 (Cytochrome P450 3A4 [1]): > 100 µM
IC50 (Cytochrome P450 2B6): > 100 µM
remaining at 0.5 h (CYP1A2): > 95%
remaining at 0.5 h (CYP3A5): > 95%
IC50 (Cytochrome P450 2E1 [2]): > 100 µM
IC50 (Cytochrome P450 3A4 [3]): > 100 µM
IC50 (Cytochrome P450 2C8 [4]): > 100 µM
Activity (Mus musculus [5]): 3.1%
IC50 (Cytochrome P450 3A4 [6]): > 100 µM
remaining at 0.5 h (CYP2C19): > 95%
IC50 (Cytochrome P450 2C8 [7]): 76.3 µM
IC50 (Dipeptidyl peptidase 8): > 100 µM
IC50 (Cytochrome P450 3A4 [8]): > 100 µM
IC50 (Cytochrome P450 2C19 [9]): > 100 µM
AUC [10]: 4240 µg·h/mL
remaining at 0.5 h (CYP2D6): > 95%
inhibition in vivo at 10 mg/kg (Rhesus monkey [11]): 76.2%
inhibition in vivo at 10 mg/kg (Rhesus monkey [12]): 43.4%
IC50 (Cytochrome P450 2D6 [13]): > 100 µM
IC50 (Cytochrome P450 2C19 [14]): > 100 µM
Activity (Mus musculus [15]): Active
IC50 (Cytochrome P450 2C9 [16]): > 100 µM
IC50 (Cytochrome P450 3A5 [17]): 45.8 µM
microsomal CLint at 0.5 µM [18]: 0.8 µL/min/mg
Activity (Mus musculus [19]): Active
IC50 (Cytochrome P450 2E1 [20]): > 100 µM
IC50 (Cytochrome P450 3A5 [21]): > 100 µM
IC50 (Cytochrome P450 2C8 [22]): > 100 µM
IC50 (Dipeptidyl peptidase 9): > 100 µM
MTD [23]: 1000 mg/kg
Vd [24]: 3.3 L/kg
remaining at 0.5 h (CYP2B6): > 95%
IC50 (Cytochrome P450 2C9 [25]): > 100 µM
IC50 (Cytochrome P450 3A5 [26]): > 100 µM
Cmax [27]: 0.352 µg/mL
IC50 (Cytochrome P450 2D6 [28]): > 100 µM
half-life [29]: 29.9 h
IC50 (Cytochrome P450 3A5 [30]): > 100 µM
